The values below come from patent publication US7491794B2, “Macrocyclic compounds as inhibitors of viral replication” (Intermune, Inc., priority 2003, dated 2009).

As usually defined, the IC50 is the midpoint of a concentration-inhibition curve. Broadly, the EC50 is the concentration that produces a half-maximal response.

For one assay, the target named is T1, NS3-NS4A protease (Hepatitis C virus genotype 1a, UniProt P27958).
T1 construct: Recombinant E. coli or Baculovirus full-length NS3 was diluted to 3.33 μM with assay buffer; made in house; host or cells: E. coli or baculovirus (BV) system
T1 sequence (P27958 1027-1657): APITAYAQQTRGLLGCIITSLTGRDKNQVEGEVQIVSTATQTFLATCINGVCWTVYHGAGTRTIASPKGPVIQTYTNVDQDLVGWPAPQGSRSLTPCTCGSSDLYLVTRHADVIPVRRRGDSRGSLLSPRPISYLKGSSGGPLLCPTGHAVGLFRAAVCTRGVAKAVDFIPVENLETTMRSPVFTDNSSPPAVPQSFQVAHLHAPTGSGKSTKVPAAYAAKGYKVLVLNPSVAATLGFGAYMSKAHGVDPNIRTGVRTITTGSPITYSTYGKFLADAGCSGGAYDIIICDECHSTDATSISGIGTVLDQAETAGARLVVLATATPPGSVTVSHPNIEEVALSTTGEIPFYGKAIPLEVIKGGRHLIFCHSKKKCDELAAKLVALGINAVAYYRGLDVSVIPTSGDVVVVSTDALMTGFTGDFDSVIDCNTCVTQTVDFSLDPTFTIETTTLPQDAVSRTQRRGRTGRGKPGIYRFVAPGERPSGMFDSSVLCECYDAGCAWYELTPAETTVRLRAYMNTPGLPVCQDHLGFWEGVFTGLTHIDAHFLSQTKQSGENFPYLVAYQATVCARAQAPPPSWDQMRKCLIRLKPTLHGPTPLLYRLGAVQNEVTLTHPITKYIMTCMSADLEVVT
As to the kind of experiment: NS3-NS4A protease assay (NS3 inhibition assay, RETS1 substrate), Section B. The format is biochemical. The note with it: read-out: NS3-NS4A IC50. An outline of the steps:
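Kinetic fluorescence read (335 nm excitation, 495 nm emission, 30 min) of RETS1 cleavage by NS3/NS4A-2 complex, 2 nM E. coli or 3 nM baculovirus NS3, after 10 min room-temperature compound pre-incubation. Four-parameter-fit IC50s converted to Ki by Cheng–Prusoff, Ki=IC50/(1+[S]/Km).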

The test system of assay [1] is HCV sub-genomic replicon, GS4.3. As to the kind of experiment: Quantitation by ELISA of NPTII in the HCV sub-genomic replicon, GS4.3, Section B. The format is cell-based. The note with it: Hepatitis C virus; GS4.3 cells, 72 h incubation; read-out: Replicon EC50. An excerpt:
Quantitation by ELISA of the Selectable Marker Protein, Neomycin Phosphotransferase II (NPTII) in the HCV Sub-Genomic Replicon, GS4.3
The HCV sub-genomic replicon (1377/NS3-3′, accession No. AJ242652), stably maintained in HuH-7 hepatoma cells, was created by Lohmann et al. Science 285: 110-113 (1999). The replicon-containing cell culture, designated GS4.3, was obtained from Dr. Christoph Seeger of the Institute for Cancer Research, Fox Chase Cancer Center, Philadelphia, Pa.
GS4.3 cells were maintained at 37° C., 5% CO2, in DMEM (Gibco 11965-092) supplemented with L-glutamine 200 mM (100×) (Gibco25030-081), non-essential amino acids (NEAA)(Biowhittaker 13-114E), heat-inactivated (HI) Fetal Bovine Serum(FBS)(Hyclone SH3007.03) and 750 μg/ml geneticin (G418)(Gibco 10131-035). Cells were sub-divided 1:3 or 4 every 2-3 days.
24 hours prior to the assay, GS4.3 cells were collected, counted, and plated in 96-well plates (Costar 3585) at 7500 cells/well in 100 μl standard maintenance medium (above) and incubated in the conditions above. To initiate the assay, culture medium was removed, cells were washed once with PBS (Gibco 10010-023) and 90 μl Assay Medium (DMEM, L-glutamine, NEAA, 10% HI FBS, no G418) was added. Inhibitors were made as a 10× stock in Assay Medium, (3-fold dilutions from 10 μM to […] final concentration, final DMSO concentration 1%), 10 μl were added to duplicate wells, plates were rocked to mix, and incubated as above for 72 h.
An NPTII ELISA kit was obtained from AGDIA, Inc. (Compound direct ELISA test system for Neomycin Phosphotransferase II, PSP 73000/4800). Manufacturer's instructions were followed, with some modifications. 10×PEB-1 lysis buffer was made up to include 500 μM PMSF (Sigma P7626, 50 mM stock in isopropanol). After 72 h incubation, cells were washed once with PBS and 150 μl PEB-1 with PMSF was added per well. Plates were agitated vigorously for 15 minutes, room temperature, then frozen at −70° C. Plates were thawed, lysates were mixed thoroughly, and 100 μl were applied to an NPTII Elisa plate. A standard curve was made. Lysate from DMSO-treated control cells was pooled, serially diluted with PEB-1 with PMSF, and applied to duplicate wells of the ELISA plate, in a range of initial lysate amount of 150u1-2.5 ul. In addition, 100 μl buffer alone was applied in duplicate as a blank. Plates were sealed and gently agitated at room temperature for 2 h. Following capture incubation, the plates were washed 5×300 μl with PBS-T (0.5% Tween-20, PBS-T was supplied in the ELISA kit). For detection, a 1× dilution of enzyme conjugate diluent MRS-2 (5×) was made in PBS-T, into which 1:100 dilutions of enzyme conjugates A and B were added, as per instructions. Plates were resealed, and incubated with agitation, covered, room temperature, for 2 h. The washing was then repeated and 100 μl of room temperature TMB substrate was added. After approximately 30 minutes incubation (room temperature, agitation, covered), the reaction was stopped with 50 μl 3M sulfuric acid. Plates were read at 450 nm on a Molecular Devices Versamax plate reader.
Inhibitor effect was expressed as a percentage of DMSO-treated control signal, and inhibition curves were calculated using a 4-parameter equation: y=A+((B−A)/(1+((C/x)^D))), where C is half-maximal activity or EC50.
(ELISA stands for enzyme-linked immunosorbent assay.)

For the compound `CC(C)(C)OC(=O)N[C@H]1CCCCC/C=C\[C@@H]2C[C@@]2(C(=O)NS(=O)(=O)C2CC2)NC(=O)[C@@H]2C[C@@H](OC(=O)N3CCc4cc(C(F)(F)F)ccc4C3)CN2C1=O` [AR00301747, (1S,4R,6S,14S,18R)-6-Trifluoromethyl-3,4-dihydro-1H-isoquinoline-2-carboxylic acid 14-tert-butoxycarbonylamino-4-cyclopropanesulfonylaminocarbonyl-2,15-dioxo-3,16-diaza-tricyclo[14.3.0.0^4,6]nonadec-7-en-18-yl ester], the IC50 on NS3-NS4A protease was less than 100 nM. Moreover, the EC50 in assay [1] is less than 100 nM.
Consider `CC(C)NCCOc1ccc2c(c1)CN(C(=O)O[C@@H]1C[C@H]3C(=O)N[C@]4(C(=O)NS(=O)(=O)C5CC5)C[C@H]4/C=C\CCCCC[C@H](NC(=O)OC(C)(C)C)C(=O)N3C1)C2` [AR00345094, (1S,4R,6S,14S,18R)-5-(2-Isopropylamino-ethoxy)-1,3-dihydro-isoindole-2-carboxylic acid 14-tert-butoxycarbonylamino-4-cyclopropanesulfonylaminocarbonyl-2,15-dioxo-3,16-diaza-tricyclo[14.3.0.0^4,6]nonadec-7-en-18-yl ester], for which the concentration for half-maximal inhibition (IC50) on NS3-NS4A protease was less than 100 nM. The EC50 in assay [1] was less than 100 nM.
For `O=C(NC1CCCC1)N[C@H]1CCCCC/C=C\[C@@H]2C[C@@]2(C(=O)NS(=O)(=O)C2CC2)NC(=O)[C@@H]2C[C@@H](NC(=O)N3Cc4ccccc4C3)CN2C1=O` [AR00304014, (1S,4R,6S,14S,18R)-1,3-Dihydro-isoindole-2-carboxylic acid [14-(3-cyclopentyl-ureido)-4-cyclopropanesulfonylaminocarbonyl-2,15-dioxo-3,16-diaza-tricyclo[14.3.0.0^4,6]nonadec-7-en-18-yl]-amide], the IC50 on NS3-NS4A protease was less than 100 nM. Besides, the EC50 in assay [1] is less than 100 nM.
On to `CC1(C)CN(C(=O)O[C@@H]2C[C@H]3C(=O)N[C@]4(C(=O)NS(=O)(=O)C5CC5)C[C@H]4/C=C\CCCCC[C@H](NC(=O)O[C@H]4CCOC4)C(=O)N3C2)Cc2ccccc21` [AR00314654, (1S,4R,6S,14S,18R)-4,4-Dimethyl-3,4-dihydro-1H-isoquinoline-2-carboxylic acid 4-cyclopropanesulfonylaminocarbonyl-2,15-dioxo-14-(tetrahydro-furan-3S-yloxycarbonylamino)-3,16-diaza-tricyclo[14.3.0.0^4,6]nonadec-7-en-18-yl ester], for which the IC50 at NS3-NS4A protease was less than 100 nM. Besides, the EC50 in assay [1] was less than 100 nM.
Regarding `O=C(N[C@H]1CCCCC/C=C\[C@@H]2C[C@@]2(C(=O)NS(=O)(=O)C2CC2)NC(=O)[C@@H]2C[C@@H](OC(=O)N3Cc4ccccc4C3)CN2C1=O)OCCF` [AR00320073, (1S,4R,6S,14S,18R)-1,3-Dihydro-isoindole-2-carboxylic acid 4-cyclopropanesulfonylaminocarbonyl-14-(2-fluoro-ethoxycarbonylamino)-2,15-dioxo-3,16-diaza-tricyclo[14.3.0.0^4,6]nonadec-7-en-18-yl ester], the IC50 on NS3-NS4A protease was less than 100 nM. For the same compound, the EC50 in assay [1] is less than 100 nM.
On to `O=C(N[C@H]1CCCCCC=C[C@@H]2C[C@@]2(C(=O)NS(=O)(=O)C2CC2)NC(=O)[C@@H]2C[C@@H](OC(=O)N3Cc4ccccc4C3)CN2C1=O)OC1CCCC1` [AR00333831, (1S,4R,6S,14S,18R)-1,3-Dihydro-isoindole-2-carboxylic acid 14-cyclopentyloxycarbonylamino-4-cyclopropanesulfonylaminocarbonyl-2,15-dioxo-3,16-diaza-tricyclo[14.3.0.0^4,6]nonadec-7-en-18-yl ester], for which, on NS3-NS4A protease, the IC50 is less than 100 nM. In addition, the EC50 in assay [1] is less than 100 nM.
Turning to `CC(C)(C)OC(=O)N[C@H]1CCCCC/C=C\[C@@H]2C[C@@]2(C(=O)O)NC(=O)[C@@H]2C[C@@H](OC(=O)N3CCc4c(N)cccc4C3)CN2C1=O` [AR00301745, (1S,4R,6S,14S,18R)-18-(5-Amino-3,4-dihydro-1H-isoquinoline-2-carbonyloxy)-14-tert-butoxycarbonylamino-2,15-dioxo-3,16-diaza-tricyclo[14.3.0.0^4,6]nonadec-7-ene-4-carboxylic acid], the IC50 on NS3-NS4A protease was less than 1000 nM. Besides, the EC50 in assay [1] is less than 10000 nM.
Take `O=C(N[C@H]1CCCCC/C=C\[C@@H]2C[C@@]2(C(=O)O)NC(=O)[C@@H]2C[C@@H](OC(=O)N3CCc4ccccc4C3)CN2C1=O)OC1CCOCC1` [AR00320002, (1S,4R,6S,14S,18R)-18-(3,4-Dihydro-1H-isoquinoline-2-carbonyloxy)-2,15-dioxo-14-(tetrahydro-pyran-4-yloxycarbonylamino)-3,16-diaza-tricyclo[14.3.0.0^4,6]nonadec-7-ene-4-carboxylic acid]: the IC50 at NS3-NS4A protease is less than 1000 nM. In assay [1], the EC50 is less than 10000 nM.
On to `O=C(NC1CCCC1)N[C@H]1CCCCC/C=C\[C@@H]2C[C@@]2(C(=O)NS(=O)(=O)C2CC2)NC(=O)[C@@H]2C[C@@H](OC(=O)N3CCc4cccc(C(F)(F)F)c4C3)CN2C1=O` [AR00304081, (1S,4R,6S,14S,18R)-8-Trifluoromethyl-3,4-dihydro-1H-isoquinoline-2-carboxylic acid 14-(3-cyclopentyl-ureido)-4-cyclopropanesulfonylaminocarbonyl-2,15-dioxo-3,16-diaza-tricyclo[14.3.0.0^4,6]nonadec-7-en-18-yl ester], for which the IC50 at NS3-NS4A protease was less than 100 nM. Also, the EC50 in assay [1] was less than 1000 nM.
`CC(C)(C)OC(=O)N[C@H]1CCCCC/C=C\[C@@H]2C[C@@]2(C(=O)NS(=O)(=O)C2CC2)NC(=O)[C@@H]2C[C@@H](NC(=O)N3CCc4ccccc4C3)CN2C1=O` [AR00287266, (is, 4R, 6S, 14S, 18R)-{4-Cyclopropanesulfonylaminocarbonyl-18-[(3,4-dihydro-1H-isoquinoline-2-carbonyl)-amino]-2,15-dioxo-3,16-diaza-tricyclo[14.3.0.0^4,6]nonadec-7-en-14-yl}-carbamic acid tert-butyl ester]: the IC50 at NS3-NS4A protease is less than 100 nM. In addition, in assay [1], the EC50 was less than 1000 nM.
On to `O=C(NC1CCCC1)N[C@H]1CCCCC/C=C\[C@@H]2C[C@@]2(C(=O)NS(=O)(=O)C2CC2)NC(=O)[C@@H]2C[C@@H](OC(=O)N3Cc4ccc(Cl)cc4C3)CN2C1=O` [AR00320574, (1S,4R,6S,14S,18R)-5-Chloro-1,3-dihydro-isoindole-2-carboxylic acid 14-(3-cyclopentyl-ureido)-4-cyclopropanesulfonylaminocarbonyl-2,15-dioxo-3,16-diaza-tricyclo[14.3.0.0^4,6]nonadec-7-en-18-yl ester], for which the IC50 on NS3-NS4A protease is less than 100 nM. The EC50 in assay [1] is less than 100 nM.
With `O=C(N[C@H]1CCCCC/C=C\[C@@H]2C[C@@]2(C(=O)NS(=O)(=O)C2CC2)NC(=O)[C@@H]2C[C@@H](OC(=O)N3Cc4ccc(Cl)cc4C3)CN2C1=O)O[C@H]1CCOC1` [AR00334220, (1S,4R,6S,14S,18R)-5-Chloro-1,3-dihydro-isoindole-2-carboxylic acid 4-cyclopropanesulfonylaminocarbonyl-2,15-dioxo-14-(tetrahydro-furan-3-yloxycarbonylamino)-3,16-diaza-tricyclo[14.3.0.0^4,6]nonadec-7-en-18-yl ester], the IC50 on NS3-NS4A protease was less than 100 nM. Also, in assay [1], the EC50 was less than 1000 nM.
